Assay results published in US20230017045A1, “PYRIDINE AND PYRIMIDINE CARBOXYLATE HERBICIDES AND METHODS OF USE THEREOF” (Dow AgroSciences LLC, priority 2017, published 2023).
Read-outs that look alike come from different tables or passages of the source.

Tested on: test plant species
Assay: Post-emergent herbicidal activity test (greenhouse, foliar spray, visual growth reduction)
Format: in vivo
Conditions: post-emergence, 336 h, 140 g ai/ha
Summary of the method: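 Seedlings were raised 7-21 d in a greenhouse under a 15 h photoperiod until the first or second true leaf. Each compound, dissolved in acetone:DMSO 97:3 and diluted into a surfactant-containing spray mixture, was then applied at 187 L/ha. Plants were subirrigated, and growth reduction was scored visually at 14 d.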

[1] = ALOMY: blackgrass (Alopecurus myosuroides), 14 days after application, read-out: Visual Growth Reduction (%) 14 Days After Application, ALOMY
[2] = AMARE: redroot pigweed (Amaranthus retroflexus), 14 days after application, read-out: Visual Growth Reduction (%) 14 Days After Application, AMARE
[3] = AVEFA: wild oat (Avena fatua), 14 days after application, read-out: Visual Growth Reduction (%) 14 Days After Application, AVEFA
[4] = CHEAL: lambsquarters (Chenopodium album), 14 days after application, read-out: Visual Growth Reduction (%) 14 Days After Application, CHEAL
[5] = CIRAR: canada thistle (Cirsium arvense), 14 days after application, read-out: Visual Growth Reduction (%) 14 Days After Application, CIRAR
[6] = CYPES: yellow nutsedge (Cyperus esculentus), 14 days after application, read-out: Visual Growth Reduction (%) 14 Days After Application, CYPES
[7] = DIGSA: crabgrass (Digitaria sanguinalis), 14 days after application, read-out: Visual Growth Reduction (%) 14 Days After Application, DIGSA
[8] = ECHCG: barnyardgrass (Echinochloa crus-galli), 14 days after application, read-out: Visual Growth Reduction (%) 14 Days After Application, ECHCG
[9] = KCHSC: kochia (Bassia scoparia), 14 days after application, read-out: Visual Growth Reduction (%) 14 Days After Application, KCHSC
[10] = ORYSA: rice (Oryza sativa), 14 days after application, read-out: Visual Growth Reduction (%) 14 Days After Application, ORYSA
[11] = SETFA: giant foxtail (Setaria faberi), 14 days after application, read-out: Visual Growth Reduction (%) 14 Days After Application, SETFA
[12] = SORVU: grain sorghum (Sorghum vulgare), 14 days after application, read-out: Visual Growth Reduction (%) 14 Days After Application, SORVU
[13] = STEME: common chickweed (Stellaria media), 14 days after application, read-out: Visual Growth Reduction (%) 14 Days After Application, STEME
[14] = TRZAS: wheat, spring (Triticum aestivum), 14 days after application, read-out: Visual Growth Reduction (%) 14 Days After Application, TRZAS
[15] = IPOHE: ivy-leaf morning glory (Ipomoea hederacea), 14 days after application, read-out: Visual Growth Reduction (%) 14 Days After Application, IPOHE
[16] = blackgrass (Alopecurus myosuroides), 14 Days After Application, read-out: Visual Growth Reduction (%) ALOMY
[17] = canada thistle (Cirsium arvense), 14 Days After Application, read-out: Visual Growth Reduction (%) CIRAR
[18] = crabgrass (Digitaria sanguinalis), 14 Days After Application, read-out: Visual Growth Reduction (%) DIGSA
[19] = lambsquarters (Chenopodium album), 14 Days After Application, read-out: Visual Growth Reduction (%) CHEAL
[20] = redroot pigweed (Amaranthus retroflexus), 14 Days After Application, read-out: Visual Growth Reduction (%) AMARE
[21] = wild oat (Avena fatua), 14 Days After Application, read-out: Visual Growth Reduction (%) AVEFA
[22] = yellow nutsedge (Cyperus esculentus), 14 Days After Application, read-out: Visual Growth Reduction (%) CYPES

Row | SMILES | pest or weed control at 140 g/ha [1] [%] | pest or weed control at 140 g/ha [2] [%] | pest or weed control at 140 g/ha [3] [%] | pest or weed control at 140 g/ha [4] [%] | pest or weed control at 140 g/ha [5] [%] | pest or weed control at 140 g/ha [8] [%] | pest or weed control at 140 g/ha [9] [%] | pest or weed control at 140 g/ha [10] [%] | pest or weed control at 140 g/ha [11] [%] | pest or weed control at 140 g/ha [12] [%] | pest or weed control at 140 g/ha [13] [%] | pest or weed control at 140 g/ha [14] [%] | pest or weed control at 140 g/ha [15] [%] | pest or weed control at 140 g/ha [16] [%] | pest or weed control at 140 g/ha [17] [%] | pest or weed control at 140 g/ha [18] [%] | pest or weed control at 140 g/ha [19] [%] | pest or weed control at 140 g/ha [20] [%] | pest or weed control at 140 g/ha [21] [%] | pest or weed control at 140 g/ha [22] [%] | further results
1 | COC(=O)c1nc(-c2cc(Cl)c(C#N)cc2Cl)ccc1Cl [F50, Methyl 3-chloro-6-(2,5-dichloro-4-cyanophenyl) picolinate] | 0 to 29 | 0 to 29 | 0 to 29 | 60 to 74 | 0 to 29 | 0 to 29 | 0 to 29 | 0 to 29 | 0 to 29 | 0 to 29 | 0 to 29 | 0 to 29 |  |  |  |  |  |  |  |  | pest or weed control at 140 g/ha [6]: 0 to 29%; pest or weed control at 140 g/ha [7]: 0 to 29%
2 | COC(=O)c1nc(-c2cc(C#N)c(C(F)(F)F)cc2Cl)c(F)cc1Cl [F321, Methyl 3-chloro-6-(2-chloro-5-cyano-4-(trifluoromethyl)phenyl)-5-fluoropicolinate] |  |  |  |  |  | 30 to 44 | 0 to 29 | 0 to 29 | 75 to 84 | 95 to 100 | 0 to 29 | 30 to 44 | 85 to 94 | 0 to 29 | 75 to 84 | 85 to 94 | 95 to 100 | 30 to 44 | 75 to 84 | 0 to 29 | 
3 | C=Cc1c(C(F)(F)F)ccc(-c2ccc(Cl)c(C(=O)OC)n2)c1Cl [F137, methyl 3-chloro-6-(2-chloro-4-(trifluoromethyl)-3-vinylphenyl)picolinate] | 0 to 29 | 60 to 74 | 0 to 29 | 75 to 84 | 0 to 29 | 0 to 29 | 0 to 29 | 0 to 29 | 0 to 29 | 60 to 74 | 0 to 29 | 0 to 29 | 95 to 100 |  |  |  |  |  |  |  | pest or weed control at 140 g/ha [6]: 0 to 29%; pest or weed control at 140 g/ha [7]: 30 to 44%
4 | COC(=O)c1nc(-c2cc3nonc3cc2F)c(Cl)cc1Cl [F327, Methyl 3,5-dichloro-6-(6-fluorobenzo[c][1,2,5]oxadiazol-5-yl)picolinate] |  |  |  |  |  | 0 to 29 | 0 to 29 | 0 to 29 | 30 to 44 | 0 to 29 | 0 to 29 | 0 to 29 | 75 to 84 | 0 to 29 | 0 to 29 | 0 to 29 | 30 to 44 | 30 to 44 | 0 to 29 | 0 to 29 | 
5 | COC(=O)c1nc(-c2ccc(OC(F)F)cc2Cl)c(F)cc1Cl [F200, Methyl 3-chloro-6-(2-chloro-4-(difluoromethoxy)phenyl)-5-fluoropicolinate] |  |  |  |  |  | 75 to 84 | 95 to 100 | 0 to 29 | 85 to 94 | 95 to 100 | 30 to 44 | 75 to 84 | 95 to 100 | 45 to 59 | 95 to 100 | 95 to 100 | 95 to 100 | 95 to 100 | 60 to 74 | 0 to 29 | 
6 | COC(=O)c1nc(-c2ccc(C(F)(F)F)cc2Cl)c(F)cc1F [F373, Methyl 6-(2-chloro-4-(trifluoromethyl)phenyl)-3,5-difluoropicolinate] |  |  |  |  |  | 75 to 84 | 75 to 84 | 0 to 29 | 75 to 84 | 95 to 100 | 30 to 44 | 30 to 44 | 95 to 100 | 0 to 29 | 95 to 100 | 95 to 100 | 95 to 100 | 95 to 100 | 45 to 59 | 0 to 29 | 
7 | COC(=O)c1nc(-c2cc(F)c3c(c2)OC(F)(F)O3)ccc1Cl [F367, Methyl 3-chloro-6-(2,2,7-trifluorobenzo[d][1,3]dioxol-5-yl)picolinate] |  |  |  |  |  | 0 to 29 | 0 to 29 | 0 to 29 | 0 to 29 | 0 to 29 | 0 to 29 | 0 to 29 | 95 to 100 | 0 to 29 | 0 to 29 | 75 to 84 | 0 to 29 | 0 to 29 | 0 to 29 | 0 to 29 | 
8 | O=C(O)c1nc(-c2ccc(C(F)(F)C(=O)O)cc2Cl)ccc1Cl [F180, 6-(4-(Carboxy-difluoromethyl)-2-chlorophenyl)-3-chloropicolinic acid] | 0 to 29 | 0 to 29 | 0 to 29 | 0 to 29 | 0 to 29 | 0 to 29 | 0 to 29 | 0 to 29 | 0 to 29 | 0 to 29 | 0 to 29 | 0 to 29 | 0 to 29 |  |  |  |  |  |  |  | pest or weed control at 140 g/ha [6]: 0 to 29%; pest or weed control at 140 g/ha [7]: 0 to 29%
9 | COC(=O)c1nc(-c2ccc(OC(F)F)cc2OC)c(F)cc1Cl [F161 (F393)] | 0 to 29 | 95 to 100 | 75 to 84 | 85 to 94 | 85 to 94 |  |  |  |  |  |  |  |  |  |  |  |  |  |  |  | pest or weed control at 140 g/ha [6]: 0 to 29%; pest or weed control at 140 g/ha [7]: 45 to 59%
10 | COC(=O)c1nc(-c2ccc3c(c2)C(F)(F)OC(F)(F)O3)c(F)cc1Cl [F204, Methyl 3-chloro-5-fluoro-6-(2,2,4,4-tetrafluoro-4H-benzo[d][1,3]dioxin-6-yl)picolinate] |  |  |  |  |  | 0 to 29 | 0 to 29 | 0 to 29 | 0 to 29 | 0 to 29 | 0 to 29 | 0 to 29 | 30 to 44 | 0 to 29 | 0 to 29 | 0 to 29 | 0 to 29 | 0 to 29 | 0 to 29 | 0 to 29 | 
